{"source": "PubChem BioAssay AID2060609", "about": "(Molecular Pharmacology Branch, DTP, NCI, 2025);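 further: spheroids exposed to drugs for seven days before readout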;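 on viability, T/C: 100% = DMSO vehicle control wells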", "test_system": "855422-203-R-J1-PDC complex spheroids, viability", "assay": "Anticancer human tumor 855422-203-R-J1-PDC patient-derived bladder carcinoma cell line growth inhibition [CLK]", "conditions": "for IC50: curve of first compound; for viability, T/C: stronger effect = lower value", "method_in_brief": "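Patient-derived tumor cells grown as complex spheroids with HUVEC endothelial cells and mesenchymal stem cells, treated with drug combinations. Concentrations descend in half-log steps from near clinical Cmax, or from 10 microM if Cmax unknown.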"}
{"smiles": "C=CC(=O)Nc1cc(Nc2nccc(-c3cn(C)c4ccccc34)n2)c(OC)cc1N(C)CCN(C)C", "note": "+ CNC(=O)c1ccc(Nc2nc(OC3CCCC3)c3c(-c4ccc5nc(C)oc5c4)c[nH]c3n2)c(OC)c1", "values": [{"measurement": "IC50", "setting": "second compound 0.0316 µM", "result": "> 300000", "unit": "pM"}, {"measurement": "IC50", "setting": "second compound 0.1 µM", "result": 1170, "unit": "pM"}, {"measurement": "IC50", "setting": "second compound 0.316 µM", "result": "< 949", "unit": "pM"}, {"measurement": "IC50", "setting": "second compound 1 µM", "result": "< 949", "unit": "pM"}, {"measurement": "IC50", "setting": "second compound 3.16 µM", "result": "< 949", "unit": "pM"}, {"measurement": "IC50", "setting": "second compound 10 µM", "result": "< 949", "unit": "pM"}, {"measurement": "viability, T/C", "setting": "second compound 0.0316 µM, first compound 0.000949 µM", "result": 108, "unit": "%"}, {"measurement": "viability, T/C", "setting": "second compound 0.0316 µM, first compound 0.003 µM", "result": 112, "unit": "%"}, {"measurement": "viability, T/C", "setting": "second compound 0.0316 µM, first compound 0.00949 µM", "result": 109, "unit": "%"}, {"measurement": "viability, T/C", "setting": "second compound 0.0316 µM, first compound 0.03 µM", "result": 97.1, "unit": "%"}, {"measurement": "viability, T/C", "setting": "second compound 0.0316 µM, first compound 0.0949 µM", "result": 98.8, "unit": "%"}, {"measurement": "viability, T/C", "setting": "second compound 0.0316 µM, first compound 0.3 µM", "result": 76.3, "unit": "%"}, {"measurement": "viability, T/C", "setting": "second compound 0.1 µM, first compound 0.000949 µM", "result": 53.6, "unit": "%"}, {"measurement": "viability, T/C", "setting": "second compound 0.1 µM, first compound 0.003 µM", "result": 33.9, "unit": "%"}, {"measurement": "viability, T/C", "setting": "second compound 0.1 µM, first compound 0.00949 µM", "result": 29.3, "unit": "%"}, {"measurement": "viability, T/C", "setting": "second compound 0.1 µM, first compound 0.03 µM", "result": 29.2, "unit": "%"}, {"measurement": "viability, T/C", "setting": "second compound 0.1 µM, first compound 0.0949 µM", "result": 28.6, "unit": "%"}, {"measurement": "viability, T/C", "setting": "second compound 0.1 µM, first compound 0.3 µM", "result": 22.4, "unit": "%"}, {"measurement": "viability, T/C", "setting": "second compound 0.316 µM, first compound 0.000949 µM", "result": 21.3, "unit": "%"}, {"measurement": "viability, T/C", "setting": "second compound 0.316 µM, first compound 0.003 µM", "result": 22.4, "unit": "%"}, {"measurement": "viability, T/C", "setting": "second compound 0.316 µM, first compound 0.00949 µM", "result": 19.1, "unit": "%"}, {"measurement": "viability, T/C", "setting": "second compound 0.316 µM, first compound 0.03 µM", "result": 21.8, "unit": "%"}, {"measurement": "viability, T/C", "setting": "second compound 0.316 µM, first compound 0.0949 µM", "result": 24, "unit": "%"}, {"measurement": "viability, T/C", "setting": "second compound 0.316 µM, first compound 0.3 µM", "result": 20.1, "unit": "%"}, {"measurement": "viability, T/C", "setting": "second compound 1 µM, first compound 0.000949 µM", "result": 19.4, "unit": "%"}, {"measurement": "viability, T/C", "setting": "second compound 1 µM, first compound 0.003 µM", "result": 21, "unit": "%"}, {"measurement": "viability, T/C", "setting": "second compound 1 µM, first compound 0.00949 µM", "result": 27.3, "unit": "%"}, {"measurement": "viability, T/C", "setting": "second compound 1 µM, first compound 0.03 µM", "result": 23.5, "unit": "%"}, {"measurement": "viability, T/C", "setting": "second compound 1 µM, first compound 0.0949 µM", "result": 22, "unit": "%"}, {"measurement": "viability, T/C", "setting": "second compound 1 µM, first compound 0.3 µM", "result": 16.2, "unit": "%"}, {"measurement": "viability, T/C", "setting": "second compound 3.16 µM, first compound 0.000949 µM", "result": 25.8, "unit": "%"}, {"measurement": "viability, T/C", "setting": "second compound 3.16 µM, first compound 0.003 µM", "result": 23.1, "unit": "%"}, {"measurement": "viability, T/C", "setting": "second compound 3.16 µM, first compound 0.00949 µM", "result": 20.8, "unit": "%"}, {"measurement": "viability, T/C", "setting": "second compound 3.16 µM, first compound 0.03 µM", "result": 21.9, "unit": "%"}, {"measurement": "viability, T/C", "setting": "second compound 3.16 µM, first compound 0.0949 µM", "result": 21.9, "unit": "%"}, {"measurement": "viability, T/C", "setting": "second compound 3.16 µM, first compound 0.3 µM", "result": 16.5, "unit": "%"}, {"measurement": "viability, T/C", "setting": "second compound 10 µM, first compound 0.000949 µM", "result": 19.7, "unit": "%"}, {"measurement": "viability, T/C", "setting": "second compound 10 µM, first compound 0.003 µM", "result": 21.6, "unit": "%"}, {"measurement": "viability, T/C", "setting": "second compound 10 µM, first compound 0.00949 µM", "result": 18.3, "unit": "%"}, {"measurement": "viability, T/C", "setting": "second compound 10 µM, first compound 0.03 µM", "result": 19.1, "unit": "%"}, {"measurement": "viability, T/C", "setting": "second compound 10 µM, first compound 0.0949 µM", "result": 23.3, "unit": "%"}, {"measurement": "viability, T/C", "setting": "second compound 10 µM, first compound 0.3 µM", "result": 21.9, "unit": "%"}]}
